The values below come from patent publication US20070104780A1, “Formulation comprising a drug of low water solubility and method of use thereof” (priority 2005, published 2007).

Values after ≈ are worked out from the molar mass of the structure shown. Some results are limits rather than exact numbers.

Common to all, as to assay type: physicochemical
Data set [1] is described as follows: Aqueous solubility of the drugs. The source says: It will be recognized that aqueous solubility of many drugs is pH dependent; in the case of such drugs the solubility of interest herein is at a physiologically relevant pH, for example a pH of about 1 to about 8.
Data set [2] in a line: Solubility of ABT-102 in various carriers (Example 14). The note with it: thermodynamic from solid, room temperature, read-out: Solubility (S). The method, then:
An accurately weighed quantity of about 1 g of each excipient was weighed into three glass vials. Semisolid excipients were warmed in a water bath at around 50-60° C. until completely melted before weighing. An accurately weighed quantity of ABT-102 of about 25 mg, 50 mg and 100 mg was weighed into each of the three vials containing the same excipients. The vials were closed tightly and mixed for around 30 seconds by vortexing and then sonicating in a warm water bath. The vials were visually observed for dissolution after 5-6 hours. Solubility is reported in Table 11 below based on volume of carrier providing a clear solution and volume of carrier where solid was present. All solubility values were determined at room temperature.

A short description of data set [3]: Screening of carriers for solubility of ABT-869 (Example 1). The note with it: thermodynamic from solid, room temperature, read-out: Solubility (S). As for the experimental part:
Approximately 20 mg of ABT-869 was weighed and added to a 0.3 ml vial. A test carrier (100 μl) was then added by pipette to the vial. The vial was three times alternately vortexed for about 30 seconds and sonicated for about 1 minute to ensure adequate wetting and dispersion of the ABT-869. The vial was wrapped in aluminum foil, placed in a Labquake™ rotator and rotated for a minimum of 24 hours. […] If solid was still present, carrier was added until all solid had dissolved and the resulting solution was clear. Approximate solubility is reported in Table 1 below as a range based on volume of carrier providing a clear solution and volume of carrier where solid was present. All solubility values were determined at room temperature.

Data set [4] is described as follows: Solubility of ABT-869 in carriers comprising Phosal 53 MCT (Example 2, HPLC). As to conditions: 25° C. As for the experimental part: Solubility of ABT-869 was measured in various carriers comprising Phosal 53 MCT™. Approximately 100-400 mg of ABT-869 was weighed and added to a 4 ml glass vial, to which 2 ml of a test carrier was added. The vial was then vortexed and sonicated for 10 minutes. The vials were wrapped with aluminum foil, placed in a water bath at 25° C. and agitated for 2 days. The contents of the vials were then filtered and the filtrate diluted 25× with mobile phase for HPLC analysis.

A short description of data set [5]: Solubility of paricalcitol in various carriers (Example 13).
The nature of data set [6]: Solubility of isotretinoin in Phosal 53 MCT and typical solvents (Example 11).

For the compound `CC(C)(C)c1ccc2c(c1)CC[C@H]2NC(=O)Nc1cccc2[nH]ncc12` [ABT-102], the solubility in data set [1] (water, pH 1.1, simulated gastric fluid, read-out: solubility in water) was ~0.102 µg/mL (≈ 0.000293 mM); in data set [1] (water, pH 6.8, aqueous buffer, read-out: solubility in water) it was ~0.0573 µg/mL (≈ 0.000164 mM); in data set [2] (oil or lipid, carrier Gelucire 44/14), 25 to 50 mg/mL (≈ 71.7 to 143 mM); in data set [2] (oil or lipid, carrier Phosal 50 PG), 50 to 100 mg/mL (≈ 143 to 287 mM); in data set [2] (oil or lipid, carrier Phosal 53 MCT), 50 to 100 mg/mL (≈ 143 to 287 mM); in data set [2] (oil or lipid, carrier Vit.E TPGS), < 200 mg/mL. The solubility in data set [2] (organic solvent or mixture, carrier PEG 400) stood at 71 mg/mL (≈ 204 mM); in data set [2] (organic solvent or mixture, carrier VP Dimer (VPD)) it was 160 mg/mL (≈ 459 mM).
In the case of `Cc1ccc(F)c(NC(=O)Nc2ccc(-c3cccc4[nH]nc(N)c34)cc2)c1` [ABT-869, N-[4-(3-amino-1H-indazol-4-yl)phenyl]-N′-(2-fluoro-5-methylphenyl)urea], the solubility in data set [1] (pH 1, simulated gastric fluid) is ~1.7 µg/mL (≈ 0.00453 mM); in data set [1] (pH 5, aqueous buffer), ~0.027 µg/mL (≈ 7.19e-05 mM); in data set [3] (oil or lipid, carrier 10% ethanol, 90% Phosal 50 PG), 50 to 67 mg/mL (≈ 133 to 178 mM); in data set [3] (oil or lipid, carrier 10% ethanol, 90% Phosal 53 MCT), 67 to 100 mg/mL (≈ 178 to 266 mM); in data set [3] (oil or lipid, carrier 100% Captex 355 EP), < 50 mg/mL; in data set [3] (organic solvent or mixture, carrier 10% ethanol, 20% polysorbate 80, 70% PEG 400), > 200 mg/mL. In addition, the solubility in data set [3] (organic solvent or mixture, carrier 10% ethanol, 30% Phosal 50 PG, 60% PEG 400) was > 200 mg/mL; in data set [3] (organic solvent or mixture, carrier 10% ethanol, 90% PEG 400) it was > 200 mg/mL; in data set [3] (organic solvent or mixture, carrier 100% PEG 400), > 200 mg/mL; in data set [4] (carrier 5% ethanol, 95% Phosal 53 MCT), 115 mg/g; in data set [4] (carrier 10% PEG 400, 0.5% Tween 80, 4.5% ethanol, 85% Phosal 53 MCT), >122 mg/g; in data set [4] (carrier 10% PEG 400, 5% ethanol, 85% Phosal 53 MCT), >123 mg/g. Moreover, the solubility in data set [4] (carrier 10% PEG 400, 90% Phosal 53 MCT) is reported as 139 mg/g; in data set [4] (carrier 10% ethanol, 90% Phosal 53 MCT) it was 97 mg/g; in data set [4] (carrier 20% PEG 400, 80% Phosal 53 MCT), 166 mg/g; in data set [4] (carrier 30% PEG 400, 70% Phosal 53 MCT) it was 185 mg/g; in data set [4] (carrier 40% PEG 400, 60% Phosal 53 MCT), 199 mg/g; in data set [4] (carrier 50% PEG 400, 50% Phosal 53 MCT), 221 mg/g. Moreover, the solubility in data set [4] (carrier 100% Phosal 53 MCT) is reported as 95 mg/g.
`C[C@H](/C=C/[C@H](C)C(C)(C)O)[C@H]1CC[C@H]2/C(=C/C=C3C[C@@H](O)C[C@H](O)C3)CCC[C@]12C` [paricalcitol]: the solubility in data set [1] (pH 7.4, aqueous buffer) was found to be 0.0115 µg/mL (≈ 2.76e-05 mM). Also, the “Solubility (mean of 2 tests)” value in data set [5] (carrier 10% hydroxypropyl-β-cyclodextrin in PEG) was 734 µg/g; in data set [5] (carrier Neobee M5 + 0.5% ethanol), 194 µg/g; in data set [5] (carrier PEG 400), 1,085 μg/g; in data set [5] (carrier Phosal 50 SA), 752 µg/g; in data set [5] (carrier Phosal 53 MCT), 1,459 μg/g; in data set [5] (carrier castor oil), 344 µg/g. The “Solubility (mean of 2 tests)” value is 1,067 μg/g in data set [5] (carrier glyceryl monooleate); 5,057 μg/g in data set [5] (carrier medium chain monoglycerides (Capmul MCM)); 165 µg/g in data set [5] (carrier medium chain triglycerides (Neobee M5)); 819 µg/g in data set [5] (carrier oleic acid); 1,353 μg/g in data set [5] (carrier polysorbate 80 (Tween 80)); 5,791 μg/g in data set [5] (carrier propylene glycol). Moreover, the “Solubility (mean of 2 tests)” value in data set [5] (carrier triethyl citrate) is 453 µg/g.
For `CC1=C(/C=C/C(C)=C/C=C/C(C)=C\C(=O)O)C(C)(C)CCC1` [Isotretinoin], the solubility is ~5 µg/mL (≈ 0.0166 mM) in data set [1]; 5.1 mg/g in data set [6] (in caprylic/capric triglycerides); 16.7 mg/g in data set [6] (in ethanol); 19.1 mg/g in data set [6] (in oleic acid); 2.4 mg/g in data set [6] (in soybean oil). For the same compound, the solubility limit in data set [6] (in Phosal 53 MCT at 25° C.) was in the range of 72 to 78 mg/g.
